# Laboratory results published in US10550105B2 (Ribon Therapeutics Inc., priority 2018, dated 2020).
# Biological target: PARP7 (Homo sapiens (Human), UniProt Q7Z3E1)
# Test: Enzymatic assay for inhibition of PARP7: TR-FRET displacement of biotinylated Probe A from the TIPARP active site
# Format: binding
# Settings: Table A-1
# How it was run: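 Titrated compounds compete with the biotinylated probe; after an additional 30 min incubation at 25° C, time-delayed fluorescence (90 μs) is measured. Inhibition curves use a Hill coefficient that normally floats but may be held at 1.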
# PARP7, sequence (Q7Z3E1 whole entry): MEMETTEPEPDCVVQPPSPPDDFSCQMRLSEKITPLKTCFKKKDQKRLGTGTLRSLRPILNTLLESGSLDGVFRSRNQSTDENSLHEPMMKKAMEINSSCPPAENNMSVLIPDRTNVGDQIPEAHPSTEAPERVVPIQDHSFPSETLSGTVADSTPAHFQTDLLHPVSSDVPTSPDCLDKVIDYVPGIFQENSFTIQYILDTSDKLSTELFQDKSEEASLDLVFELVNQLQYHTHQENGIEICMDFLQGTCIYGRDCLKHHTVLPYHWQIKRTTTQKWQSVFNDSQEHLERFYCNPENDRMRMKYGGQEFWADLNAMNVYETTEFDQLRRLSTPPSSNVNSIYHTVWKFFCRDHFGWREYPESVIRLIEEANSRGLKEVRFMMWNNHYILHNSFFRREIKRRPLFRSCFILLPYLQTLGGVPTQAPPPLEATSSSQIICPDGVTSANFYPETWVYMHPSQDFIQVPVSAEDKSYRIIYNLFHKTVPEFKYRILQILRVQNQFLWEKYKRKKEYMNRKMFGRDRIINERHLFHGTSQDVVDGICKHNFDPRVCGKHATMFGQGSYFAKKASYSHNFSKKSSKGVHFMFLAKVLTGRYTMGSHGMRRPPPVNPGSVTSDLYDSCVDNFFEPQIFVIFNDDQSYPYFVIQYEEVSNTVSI
row,Structure (SMILES),IC50
1,"O=c1[nH]ncc(N2Cc3cccc(OC4CCNCC4)c3C2)c1C1CC1 [Example 183, 4-Cyclopropyl-5-(4-(piperidin-4-yloxy)isoindolin-2-yl)pyridazin-3(2H)-one formic acid]",≥ 1000 nM
2,"CC(=O)N1CCC[C@@H]2CN(c3cn[nH]c(=O)c3C(F)(F)F)C[C@@H]21 [Example 142, 5-[(4aR,7aR)-1-acetyl-octahydro-1H-pyrrolo[3,4-b]pyridin-6-yl]-4-(trifluoromethyl)-2,3-dihydropyridazin-3-one]",≥ 1000 nM
3,"O=C(c1cncc(OCC2c3ccccc3CN2c2cn[nH]c(=O)c2C(F)(F)F)c1)N1CCN(c2ncc(C(F)(F)F)cn2)CC1 (centres unmarked) [Example 378, 4-(Trifluoromethyl)-5-(1-(((5-(4-(5-(trifluoromethyl)pyrimidin-2-yl)piperazine-1-carbonyl)pyridin-3-yl)oxy)methyl)isoindolin-2-yl)pyridazin-3(2H)-one]",< 100 nM
4,"C[C@@H](COCCC(=O)N1CCN(c2ncc(F)cn2)CC1)Nc1cn[nH]c(=O)c1C(F)(F)F [Example 679, (S)-5-((1-(3-(4-(5-Fluoropyrimidin-2-yl)piperazin-1-yl)-3-oxopropoxy)propan-2-yl)amino)-4-(trifluoromethyl)pyridazin-3(2H)-one]",< 100 nM
5,"COc1ccc(F)c2c1CN(c1cn[nH]c(=O)c1C(F)(F)F)C2 [Example 267, 5-(4-Fluoro-7-methoxyisoindolin-2-yl)-4-(trifluoromethyl)pyridazin-3(2H)-one]",< 100 nM
6,"N#Cc1ccc(N2CCN(C(=O)C3CC(OC[C@@H]4CCN(c5cn[nH]c(=O)c5C(F)(F)F)C4)C3)CC2)nc1 (stereo partly drawn) [Example 121A, 6-(4-((1R,3R)-3-((1-(6-oxo-5-(trifluoromethyl)-1,6-dihydropyridazin-4-yl)pyrrolidin-3-yl)methoxy)cyclobutanecarbonyl)piperazin-1-yl)nicotinonitrile]",< 100 nM
7,"C[C@@H](COCCC(=O)N1CCN(c2ncc(C(F)(F)F)cn2)CC1)Oc1cn[nH]c(=O)c1C(F)(F)F (single isomer, unassigned) [Example 544 Isomer A]",< 100 nM
8,"O=c1[nH]ncc(N2Cc3cccc(OCCN4CCCCC4)c3C2)c1Cl [Example 256, 4-Chloro-5-(4-(2-(piperidin-1-yl)ethoxy)isoindolin-2-yl)pyridazin-3(2H)-one]",≥ 1000 nM
9,"O=C(CCOC[C@H]1c2ccccc2CN1c1cn[nH]c(=O)c1C(F)(F)F)N1CCNCC1 [Example 418, (R)-5-(1-((3-Oxo-3-(piperazin-1-yl)propoxy)methyl)isoindolin-2-yl)-4-(trifluoromethyl)pyridazin-3(2H)-one 0.4 formic acid]",≥ 1000 nM
10,"COC[C@@H](COCCC(=O)N1CCN(c2ccc(C#N)cn2)CC1)Oc1cn[nH]c(=O)c1C(F)(F)F (single isomer, unassigned) [Example 532 Isomer A]",< 100 nM
11,"O=c1[nH]ncc(N2Cc3cnc(OC4CCNCC4)cc3C2)c1C(F)(F)F [Example 12, 5-[6-(piperidin-4-yloxy)-1H,2H,3H-pyrrolo[3,4-c]pyridin-2-yl]-4-(trifluoromethyl)-2,3-dihydropyridazin-3-one]",100 to 1000 nM
12,"O=C(c1cccc(OCC2c3ccccc3CN2c2cn[nH]c(=O)c2C(F)(F)F)c1)N1CCN(c2ccccn2)CC1 (centres unmarked) [Example 341, 5-(1-((3-(4-(Pyridin-2-yl)piperazine-1-carbonyl)phenoxy)methyl)isoindolin-2-yl)-4-(trifluoromethyl)pyridazin-3(2H)-one]",< 100 nM
13,"COC[C@@H](COCCC(=O)N1CCN(c2ncc(C)cn2)CC1)Nc1cn[nH]c(=O)c1C(F)(F)F [Example 690, (S)-5-((1-Methoxy-3-(3-(4-(5-methylpyrimidin-2-yl)piperazin-1-yl)-3-oxopropoxy)propan-2-yl)amino)-4-(trifluoromethyl)pyridazin-3(2H)-one]",< 100 nM
14,"COC[C@@H](COCCC(=O)N1CCN(c2ncc(C(F)(F)F)cn2)CC1)Sc1cn[nH]c(=O)c1C(F)(F)F [Example 691, (S)-5-((1-Methoxy-3-(3-oxo-3-(4-(5-(trifluoromethyl)pyrimidin-2-yl)piperazin-1-yl)propoxy)propan-2-yl)thio)-4-(trifluoromethyl)pyridazin-3(2H)-one]",< 100 nM
15,"Nc1cccc2c1CN(c1cn[nH]c(=O)c1C(F)(F)F)C2 [Example 205, 5-(4-Aminoisoindolin-2-yl)-4-(trifluoromethyl)pyridazin-3(2H)-one]",< 100 nM
16,"O=C(CCOC[C@@H]1CCCN1c1cn[nH]c(=O)c1C(F)(F)F)N1CCN(c2ccccn2)CC1 [Example 454, (S)-5-(2-((3-Oxo-3-(4-(pyridin-2-yl)piperazin-1-yl)propoxy)methyl)pyrrolidin-1-yl)-4-(trifluoromethyl)pyridazin-3(2H)-one]",< 100 nM

row,Structure (SMILES),IC50
1,"CN1CCC(NCc2cc3c(cc2F)CN(c2cn[nH]c(=O)c2C(F)(F)F)C3)CC1 [Example 25, 5-(5-fluoro-6-[[(1-methylpiperidin-4-yl)amino]methyl]-2,3-dihydro-1H-isoindol-2-yl)-4-(trifluoromethyl)-2,3-dihydropyridazin-3-one]",< 100 nM
2,"N#Cc1ccc(N2CCN(C(=O)C[C@@H]3CC[C@H]([C@@H]4CCCN4c4cn[nH]c(=O)c4C(F)(F)F)O3)CC2)nc1 [Example 141C, 6-(4-[2-[(2S,5R)-5-[(2S)-1-[6-oxo-5-(trifluoromethyl)-1,6-dihydropyridazin-4-yl]pyrrolidin-2-yl]oxolan-2-yl]acetyl]piperazin-1-yl)pyridine-3-carbonitrile]",100 to 1000 nM
3,"COC[C@@H](CO[C@H](C)CC(=O)N1CCN(c2ccc(C#N)cn2)CC1)Oc1cn[nH]c(=O)c1C(F)(F)F (single isomer, unassigned) [Example 571 Isomer D]",100 to 1000 nM
4,"N#Cc1ncc(N2CCN(C(=O)CCOC[C@@H]3CCCN3c3cn[nH]c(=O)c3C(F)(F)F)CC2)cn1 [Example 476, (S)-5-(4-(3-((1-(6-Oxo-5-(trifluoromethyl)-1,6-dihydropyridazin-4-yl)pyrrolidin-2-yl)methoxy)propanoyl)piperazin-1-yl)pyrimidine-2-carbonitrile]",100 to 1000 nM
5,"O=C(c1cccc(OCC2c3ccccc3CN2c2cn[nH]c(=O)c2C(F)(F)F)c1)N1CCn2c(nnc2C(F)(F)F)C1 (centres unmarked) [Example 367, 4-(Trifluoromethyl)-5-(1-((3-(3-(trifluoromethyl)-5,6,7,8-tetrahydro-[1,2,4]triazolo[4,3-a]pyrazine-7-carbonyl)phenoxy)methyl)isoindolin-2-yl)pyridazin-3(2H)-one]",< 100 nM
6,"C[C@@H](COCCC(=O)N1CCN(c2nnc(C(F)(F)F)s2)CC1)Nc1cn[nH]c(=O)c1C(F)(F)F [Example 722, (S)-5-((1-(3-Oxo-3-(4-(5-(trifluoromethyl)-1,3,4-thiadiazol-2-yl)piperazin-1-yl)propoxy)propan-2-yl)amino)-4-(trifluoromethyl)pyridazin-3(2H)-one]",< 100 nM
7,"COc1cc2c(cc1F)CN(c1cn[nH]c(=O)c1C(F)(F)F)C2 [Example 234, 5-(5-Fluoro-6-methoxyisoindolin-2-yl)-4-(trifluoromethyl)pyridazin-3(2H)-one]",< 100 nM
8,"N#Cc1ccc(N2CCN(C(=O)c3cccc(OCC4c5ccccc5CN4c4cn[nH]c(=O)c4C(F)(F)F)c3)CC2)nc1 (centres unmarked) [Example 340, 6-(4-(3-((2-(6-Oxo-5-(trifluoromethyl)-1,6-dihydropyridazin-4-yl)isoindolin-1-yl)methoxy)benzoyl)piperazin-1-yl)nicotinonitrile]",< 100 nM
9,"C[C@@H](COCCC(=O)N1CC[C@H]2[C@@H]1CCN2c1ncc(C(F)(F)F)cn1)Nc1cn[nH]c(=O)c1C(F)(F)F [Example 689, 5-(((S)-1-(3-Oxo-3-((3aS,6aS)-4-(5-(trifluoromethyl)pyrimidin-2-yl)hexahydropyrrolo[3,2-b]pyrrol-1(2H)-yl)propoxy)propan-2-yl)amino)-4-(trifluoromethyl)pyridazin-3(2H)-one]",100 to 1000 nM
10,"N#Cc1ccc(N2CCN(C(=O)C[C@@H]3CC[C@H](COc4cn[nH]c(=O)c4Cl)O3)CC2)nc1 [Example 582 Isomer D, 6-(4-[2-[(2S,5R)-5-[[(5-Chloro-6-oxo-1,6-dihydropyridazin-4-yl)oxy]methyl]oxolan-2-yl]acetyl]piperazin-1-yl)pyridine-3-carbonitrile]",≥ 1000 nM
11,"O=c1[nH]ncc(N2Cc3ccc(OC4CCN(C(c5ccccc5)c5ccccc5)CC4)cc3C2)c1C(F)(F)F [Example 28, 5-(5-[[1-(diphenylmethyl)piperidin-4-yl]oxy]-2,3-dihydro-1H-isoindol-2-yl)-4-(trifluoromethyl)-2,3-dihydropyridazin-3-one]",< 100 nM
12,"CO[C@H](C)[C@@H](COCCC(=O)N1CCN(c2ccc(C#N)cn2)CC1)Nc1cn[nH]c(=O)c1C(F)(F)F [Example 596, 6-(4-[3-[(2R,3R)-3-Methoxy-2-[[6-oxo-5-(trifluoromethyl)-1,6-dihydropyridazin-4-yl]amino]butoxy]propanoyl]piperazin-1-yl)pyridine-3-carbonitrile]",< 100 nM
13,"O=c1[nH]ncc(OCCOCCS(=O)(=O)N2CCN(c3ncc(C(F)(F)F)cn3)CC2)c1C(F)(F)F [Example 724, 4-(Trifluoromethyl)-5-(2-(2-((4-(5-(trifluoromethyl)pyrimidin-2-yl)piperazin-1-yl)sulfonyl)ethoxy)ethoxy)pyridazin-3(2H)-one]",< 100 nM
14,"C[C@@H](COCCC(=O)N1CCN(c2ncccc2C(F)(F)F)CC1)Nc1cn[nH]c(=O)c1C(F)(F)F [Example 677, (S)-5-((1-(3-Oxo-3-(4-(3-(trifluoromethyl)pyridin-2-yl)piperazin-1-yl)propoxy)propan-2-yl)amino)-4-(trifluoromethyl)pyridazin-3(2H)-one]",< 100 nM
15,"COCCOc1cccc2c1CN(c1cn[nH]c(=O)c1Cl)C2 [Example 162, 4-Chloro-5-(4-(2-methoxyethoxy)isoindolin-2-yl)pyridazin-3(2H)-one]",100 to 1000 nM
16,"O=c1[nH]ncc(N2Cc3ccc(OC4CCNCC4)nc3C2)c1C(F)(F)F [Example 324, 5-(2-(Piperidin-4-yloxy)-5,7-dihydro-6H-pyrrolo[3,4-b]pyridin-6-yl)-4-(trifluoromethyl)pyridazin-3(2H)-one]",100 to 1000 nM
